# Experiments:
# Experiment in all cases: agar cup assay MIC
# Assay type in all cases: cell-based
# Asbergillus niger ZM35 = details: Aspergillus niger
# Description: (§1) In vitro investigations have shown a significant potency of the compounds of the invention against a large number of bacteria including gram-positive and gram-negative strains (Staphyiococci, Streptococci, Corynebacteriae, Mycobacteriae, Proteus, Propionibacterium, Pseudomonas, Neisseriae, E. coli) and fungal strains (Candida and Aspergillus). […] In addition, the studies of post-antibiotic effects point towards a strong bactericidal effect of the compounds of the invention. […] Minimum Inhibitory Concentrations were estimated using an agar cup assay. Bacterial strains were obtained from the American Type Culture Collection or from our own collection of clinical isolates. Colonies from fresh overnight culture were resuspended in saline water to 0.5 MacFarland corresponding to 10^8 CFU/ml. 200 ml Mueller Hinton agar (Oxoid) at 48° C. was inoculated at a concentration of 10^6 CFU/ml and poured into square petri dishes (245×245 mm). Holes were made in the inoculated plates and 200 μl of the compounds to be tested were disposed into each hole. A dilution series of compounds contained six dilution between 0.25 and 125 μg/ml. For Streptococci Mueller Hinton agar was supplemented with 5% sheep blood. Plates were appropriately incubated and zone diameters of growth inhibition were measured using an electronic caliper. MICs were estimated using a linear regression curve between the zone diameter of growth inhibition and the log2 of the sample concentration. The microbiological assay set up is in agreement with the European Pharmacopoeia 3rd edition (1997). The inhibition zones are function of the concentration of the compounds used. Known antibiotics including fusidic acid (FA), mupirocin and linezolid were used as reference compounds.
# Candida albicans ZA = system: Candida albicans ZA
# Description: as §1
# [1] = system: Corynebacterium xerosis FF
# Description: as §1
# E. coli HA165 = details: Escherichia coli
# Description: as §1
# [2] = system: Propionibacterium acnes FN33; details: Cutibacterium acnes
# Description: as §1
# [3] = system: Pseudomonas aeruginosa BA17
# Description: as §1
# S. aureus CJ200 = details: Staphylococcus aureus
# Description: as §1
# S. aureus CJ234F = details: Staphylococcus aureus; S. aureus CJ234F (MRSA, Fus. resistant)
# Description: as §1
# S. aureus CJ234R = details: Staphylococcus aureus; S. aureus CJ234R (MRSA, Rifampicin resistant)
# Description: as §1
# S. aureus CJ247 = details: Staphylococcus aureus
# Description: as §1
# S. aureus N6 = details: Staphylococcus aureus; S. aureus N6 (Fus. resistant)
# Description: as §1
# S. epidermis CK5 = details: Staphylococcus epidermidis
# Description: as §1
# [4] = system: Saccaromyces cervisiae ZZ7; details: Saccharomyces cerevisiae
# Description: as §1
# [5] = system: Streptococcus faecium EI19; details: Enterococcus faecium; Streptococcus faecium EI19 (Penicillin resistant); agar with 5% sheep blood
# Description: as §1
# [6] = system: Streptococcus pyogenes EC88; details: agar with 5% sheep blood
# Description: as §1
SMILES,MIC (Asbergillus niger ZM35) [µg/mL],MIC (Candida albicans ZA) [µg/mL],MIC [1] [µg/mL],MIC (E. coli HA165) [µg/mL],MIC [2] [µg/mL],MIC [3] [µg/mL],MIC (S. aureus CJ200) [µg/mL],MIC (S. aureus CJ234F) [µg/mL],MIC (S. aureus CJ234R) [µg/mL],MIC (S. aureus CJ247) [µg/mL],MIC (S. aureus N6) [µg/mL],MIC (S. epidermis CK5) [µg/mL],MIC [4] [µg/mL],MIC [5] [µg/mL],MIC [6] [µg/mL]
"CC(=O)O[C@H]1C[C@@]2(C)C(C[C@@H](O)C3[C@@]4(C)CC[C@@H](O)[C@@H](C)C4CC[C@@]32C)[C@@H]1[C@H](CCCC(C)C)C(=O)NCCN(CCN)CCN (stereo partly drawn) [Compound 101, 21-N-{2′-[bis(2′-aminoethyl)amino]ethyl}-17R,20S,24,25-tetrahydrofusid-21-amide]",4,16,4,16,4,64,4,4,4,4,4,4,4,16,16
"CC(C)CCCC(C(=O)NCCN(CCN)CCN)[C@@H]1CC[C@@]2(C)C1C[C@@H](O)C1[C@@]3(C)CC[C@@H](O)[C@@H](C)C3CC[C@@]12C (stereo partly drawn) [Compound 103, 21-N-{2′-[bis(2′-aminoethyl)amino]ethyl}-16-desacetoxy-17R,20S,24,25-tetrahydrofusid-21-amide]",> 125,1,1,4,1,16,1,1,1,1,1,1,4,16,4
"CC(C)CCCC(C(=O)NCCN(CCN)CCN)C1=C2C[C@@H](O)C3[C@@]4(C)CC[C@@H](O)[C@@H](C)C4CC[C@]3(C)[C@@]2(C)CC1 (stereo partly shown) [Compound 104, 21-N-{2′-[bis(2′-aminoethyl)amino]ethyl}-13(17)-en-17,20,24,25-tetrahydrofusidan-21-carboxamide]",> 64,16,16,> 64,16,> 64,16,16,16,16,16,16,16,> 64,16
CC(=O)O[C@H]1C[C@@]2(C)C(C[C@@H](O)C3[C@@]4(C)CC[C@H](O)[C@@H](C)C4CC[C@@]32C)[C@@H]1[C@H](CCCC(C)C)C(=O)NCCN(CCN)CCN (stereo partly shown) [Compound 105],64,16,16,64,16,16,16,16,16,16,16,16,64,64,64
"CC(=O)O[C@H]1C[C@@]2(C)C(CC=C3[C@]2(C)CCC2[C@H](C)[C@H](O)CC[C@]32C)[C@@H]1[C@H](CCCC(C)C)C(=O)NCCN(CCN)CCN (stereo partly drawn) [Compound 106, 21-N-{2′-[bis(2′-aminoethyl)amino]ethyl}-9(11)-en-17R,20S,24,25-tetrahydrofusid-21-amide]",63,16,4,16,4,16,,4,4,4,4,4,16,16,4
"CC(=O)O[C@H]1C[C@@]2(C)C(CCC3[C@@]4(C)CC[C@@H](OS(=O)(=O)O)[C@@H](C)C4CC[C@@]32C)[C@@H]1[C@H](CCCC(C)C)C(=O)NCCN(CCN)CCN (stereo partly shown) [Compound 111, 21-N-{2′-[bis(2′-aminoethyl)amino]ethyl}-3-OSO3-11-desoxy-17,20,24,25-tetrahydro-fusid-21-amide]",64,125,16,16,4,> 125,16,16,16,,,4,64,,16
"CC(C)CCCC(C(=O)NCCN(CCN)CCN)[C@H]1CC[C@@]2(C)C1CCC1[C@@]3(C)CC[C@@H](O)[C@@H](C)C3CC[C@@]12C (stereo partly shown) [Compound 112, 21-N-{2′-[bis(2′-aminoethyl)amino]ethyl}-11-desoxy-16-desacetoxy-17S,20,24,25-tetrahydrofusid-21-amide]",,,0.25,,,,1,1,1,1,1,1,,,
"C[C@H](C(=O)NCCCN(CCCN)CCCN)[C@H]1CC[C@H]2[C@@H]3CC=C4C[C@@H](O)CC[C@]4(C)[C@H]3CC[C@]12C [Compound 114, 22-N-{3′-[bis(3′-aminopropyl)amino]propyl}-23,24-bisnor-5-cholenic-22-amide]",,> 125,64,16,16,> 125,16,16,16,16,16,16,64,,64
CC(=O)O[C@H]1C[C@@]2(C)C(C[C@@H](O)C3[C@@]4(C)CC[C@@H](OC(C)=O)[C@@H](C)C4CC[C@@]32C)[C@@H]1[C@H](CCCC(C)C)C(=O)NCCCN(CCCN)CCCN (stereo partly shown) [Compound 115],125,16,64,16,4,16,4,,4,,,4,16,,4
CC(=O)O[C@H]1C[C@@]2(C)C(CCC3[C@@]4(C)CC[C@@H](OS(=O)(=O)O)[C@@H](C)C4CC[C@@]32C)[C@@H]1[C@H](CCCC(C)C)C(=O)NCCCN(CCCN)CCCN (stereo partly shown) [Compound 116],64,64,4,64,16,125,4,4,4,,,4,16,,16
"CC(C)CCCC(C(=O)NCCCN(CCCN)CCCN)[C@H]1CC[C@@]2(C)C1CCC1[C@@]3(C)CC[C@@H](O)[C@@H](C)C3CC[C@@]12C (stereo partly shown) [Compound 117, 21-N-{3′-[bis(3′-aminopropyl)amino]propyl}-1-11-desoxy-16-desacetoxy-17S,20,24,25-tetrahydrofusid-21-amide]",,,0.25,,,,1,1,1,1,1,1,,,
"CC(=O)O[C@H]1C[C@@]2(C)[C@@H](C[C@@H](O)[C@H]3[C@@]4(C)CC[C@@H](O)[C@@H](C)[C@@H]4CC[C@@]32C)/C1=C(\CCC=C(C)C)C(=O)O [FA, fusidic acid, reference compound]",> 64,> 64,0.1,> 64,0.2,> 64,0.02,16,0.02,0.02,16,0.02,> 64,,16
"CC(=O)NC[C@H]1CN(c2ccc(N3CCOCC3)c(F)c2)C(=O)O1 [Linezolid, linezolid, reference compound]",,,,,1,,4,1,16,1,,0.25,,,4
"C/C(=C\C(=O)OCCCCCCCCC(=O)O)C[C@@H]1OC[C@H](C[C@@H]2O[C@H]2[C@@H](C)[C@H](C)O)[C@@H](O)[C@H]1O [Mupirocin, mupirocin, reference compound]",,,,,,,1,0.5,1,0.5,,0.04,,,1

# Reference: patent US20050256093A1, “Branched polyamine steroid derivatives” (Leo Pharma, priority 2002, published 2005)
